Measured values taken from patent publication US10858360B2, “Tricyclic gyrase inhibitors” (priority 2011, dated 2020).
Converted amounts (≈) assume the structure as drawn.

Legend:
S. aureus ATCC 13709 = experiment: MIC, S. aureus ATCC 13709 (Alamar Blue broth microdilution); format: cell-based; conditions: Alamar Blue read after overnight incubation at 35° C.; for MIC: Staphylococcus aureus, ATCC13709, S. aureus; for MIC Sa: S. aureus
E. coli ATCC 25922 = experiment: MIC, E. coli ATCC 25922; format: cell-based; conditions: Alamar Blue read after overnight incubation at 35° C.; for MIC: Escherichia coli, ATCC25922, E. coli; for MIC Ec: E. coli

| Compound | MIC (S. aureus ATCC 13709) [µg/mL] | MIC (E. coli ATCC 25922) [µg/mL] | MIC Sa (S. aureus ATCC 13709) [µg/mL] | MIC Ec (E. coli ATCC 25922) [µg/mL] |
| --- | --- | --- | --- | --- |
| CNc1cc(F)cc2c1[nH]c1nc(Oc3cnc(NCC4CCCO4)nc3)nc(N3C[C@H](N)C4(CC4)C3)c12 (stereo partly drawn) [4.406] | ≤ 0.5 | 1 (≈ 1.92 µM) |  |  |
| CNc1cc(F)cc2c1[nH]c1nc(Oc3cnc(C(C)(C)O)nc3)nc(N3CC4CC3C[C@@H]4N)c12 (stereo partly drawn) [4.411] | ≤ 0.5 | ≤ 0.5 |  |  |
| CNc1cc(F)cc2c1[nH]c1nc(Oc3cnc(C(C)(C)O)nc3)nc(N3CC4C[C@@H](N)C4C3)c12 (stereo partly drawn) [4.412] | ≤ 0.5 | ≤ 0.5 |  |  |
| CNc1cc(F)cc2c1[nH]c1nc(Oc3cnc(C(C)(C)O)nc3)nc(N3CC4(CC[C@H]4N)C3)c12 [4.413] | ≤ 0.5 | ≤ 0.5 |  |  |
| CNc1cc(F)cc2c1[nH]c1nc(Oc3cnc(CCO)nc3)nc(N3CC4CC3C[C@@H]4N)c12 (stereo partly drawn) [4.414] | ≤ 0.5 | 2 (≈ 4.31 µM) |  |  |
| CNc1cc(F)cc2c1[nH]c1nc(Oc3cnc(CCO)nc3)nc(N3CC4C[C@@H](N)C4C3)c12 (stereo partly drawn) [4.415] | ≤ 0.5 | 1 (≈ 2.15 µM) |  |  |
| CNc1cc(F)cc2c1[nH]c1nc(Oc3cnc(C)nc3)nc(-c3cncc(F)c3)c12 [4.417] | ≤ 0.5 | 1 (≈ 2.38 µM) |  |  |
| CNc1cc(F)cc2c1[nH]c1nc(Oc3cnc(C)nc3)nc(-c3cn[nH]c3)c12 [4.418] | ≤ 0.5 | 1 (≈ 2.56 µM) |  |  |
| CNc1cc(F)cc2c1[nH]c1nc(Oc3cnc(C)nc3)nc(-c3ccc(Cl)c(N)c3)c12 [4.419] | ≤ 0.5 | > 16 |  |  |
| CNc1cc(F)cc2c1[nH]c1nc(Oc3cnc(C)nc3)nc(-c3ccc(F)cc3CN)c12 [4.420] | 2 (≈ 4.47 µM) | > 16 |  |  |
| CNc1cc(F)cc2c1[nH]c1nc(Oc3cnc(C)nc3)nc(-c3cc(CN)ccc3F)c12 [4.421] | 2 (≈ 4.47 µM) | 8 (≈ 17.9 µM) |  |  |
| CNc1cc(F)cc2c1[nH]c1nc(Oc3cnc(C)nc3)nc(-c3cccc(CN)c3F)c12 [4.422] | 4 (≈ 8.94 µM) | 16 (≈ 35.8 µM) |  |  |
| Cc1ncc(Oc2nc(N3C[C@H](N)C4(CC4)C3)c3c(n2)[nH]c2c(N(C)C(=O)[C@H](C)N)cc(F)cc23)cn1 [4.423] | > 16 | > 16 |  |  |
| Cc1ncc(Oc2nc(N3C[C@H](N)C4(CC4)C3)c3c(n2)[nH]c2c(N(C)C(=O)[C@H](C)NC(=O)[C@H](C)N)cc(F)cc23)cn1 [4.425] | > 16 | > 16 |  |  |
| Cc1ncc(Oc2nc(N3C[C@H](N)C4(CC4)C3)c3c(n2)[nH]c2c(N(C)C(=O)CN)cc(F)cc23)cn1 [4.426] | 8 (≈ 16.3 µM) | > 16 |  |  |
| Cc1ncc(Oc2nc(N3C[C@H](NC(=O)CN)C4(CC4)C3)c3c(n2)[nH]c2c(N(C)C(=O)CN)cc(F)cc23)cn1 [4.427] | > 16 | > 16 |  |  |
| CNc1cc(F)cc2c1[nH]c1nc(Oc3cnc(CCO)nc3)nc(N3CC4CC3C[C@@H]4N)c12 (stereo partly drawn) [4.428] |  |  | ≤0.5 | 2 (≈ 4.31 µM) |
| CNc1cc(F)cc2c1[nH]c1nc(Oc3cnc(CCO)nc3)nc(N3CC4C[C@@H](N)C4C3)c12 (stereo partly drawn) [4.429] |  |  | ≤0.5 | 1 (≈ 2.15 µM) |
| CNc1cc(F)cc2c1[nH]c1nc(Oc3cnc(C(C)O)nc3)nc(C3CC4(CC[C@H]4N)C3)c12 (stereo partly drawn) [4.430] | ≤ 0.5 | ≤ 0.5 |  |  |
| CNc1cc(F)cc2c1[nH]c1nc(Oc3cnc(C(C)(C)O)nc3)nc(C3CC4(CC[C@H]4N)C3)c12 (stereo partly drawn) [4.431] | ≤ 0.5 | ≤ 0.5 |  |  |
| CNc1cc(F)cc2c1[nH]c1nc(Oc3cnc(OC)nc3)nc(N3C[C@H](N)C4(CC4)C3)c12 [4.433] | ≤ 0.5 | ≤ 0.5 |  |  |
| CNc1cc(F)cc2c1[nH]c1nc(Oc3cnc(C#N)c(C)c3)nc(N3CC4CC3C[C@@H]4N)c12 (stereo partly drawn) [4.435] | ≤ 0.5 | ≤ 0.5 |  |  |
| CNc1cc(F)cc2c1[nH]c1nc(Oc3cnc(C)nc3)nc(N3CC(N)C(C(F)(F)F)C3)c12 (stereo not drawn) [4.436] | ≤ 0.5 | > 16 |  |  |
| CNc1cc(F)cc2c1[nH]c1nc(Oc3cnc(C)nc3)nc(N3CC(N)C(C(=O)OC)C3)c12 (stereo not drawn) [4.437] | ≤ 0.5 | 1 (≈ 2.14 µM) |  |  |
| CNc1cc(F)cc2c1[nH]c1nc(Oc3cnc(C)nc3)nc(N3CC(N)C(C(=O)N4CCOCC4)C3)c12 (stereo not drawn) [4.438] | 1 (≈ 1.92 µM) | 16 (≈ 30.7 µM) |  |  |
| CNc1cc(F)cc2c1[nH]c1nc(Oc3cnc(C)nc3)nc(N3CC(N)C(C(=O)NCC(C)O)C3)c12 (stereo not drawn) [4.439] | 8 (≈ 15.7 µM) | > 16 |  |  |
| CNc1cc(F)cc2c1[nH]c1nc(Oc3cnc(C)nc3)nc(N3CC(N)C(C(=O)NCCN4CCOCC4)C3)c12 (stereo not drawn) [4.440] | 16 (≈ 28.3 µM) | > 16 |  |  |
| CNc1cc(F)cc2c1[nH]c1nc(Oc3cnc(C(C)(C)C)nc3)nc(N3CC4CC3C[C@H]4N)c12 (stereo partly drawn) [4.441] | ≤ 0.5 | ≤ 0.5 |  |  |
| CNc1cc(F)cc2c1[nH]c1nc(Oc3cnc(C(C)(C)N)nc3)nc(N3C[C@H]4CC3C[C@H]4N)c12 [4.442] | 1 (≈ 2.09 µM) | 2 (≈ 4.19 µM) |  |  |
| CNc1cc(F)cc2c1[nH]c1nc(Oc3cnc(CF)nc3)nc(N3C[C@H]4CC3C[C@H]4N)c12 [4.443] | ≤ 0.5 | ≤ 0.5 |  |  |
